These results are taken from patent publication US20150080461A1, “Composition Having Antiviral Activity against Flavivirus” (University Malaya, priority 2012, published 2015).

Values after ≈ are worked out from the molar mass of the structure shown.

For data set [1], the system named is DENV-2 (NGC strain). Kind of data set: Direct virucidal effect against DENV-2 (FFURA, qRT-PCR). In kind it is cell-based, Dengue virus type-2. The procedure: Direct virucidal effect of quercetin was investigated by incubating DENV-2 suspension containing 200 FFU with an equal volume of the different concentrations of quercetin for two hours at 37° C. Then, Vero cells were infected with the treated viral suspension in triplicates. At one hour adsorption at 37° C., cells were washed twice with PBS in order to remove unadsorbed viruses. The microplate was incubated at 37° C. for four days. Viral foci formed were counted and DENV RNA copy number to indicate direct virucidal effects was quantified using quantitative RT-PCR.
In general, antiviral activity of quercein was evaluated by measuring the reduction in number of viral foci. […] The number of DENV-2 foci formed was counted under a stereomicroscope and the virus titer was expressed as Foci-Forming-Unit (FFU). The percentage of viral foci reduction (RF %) compared to untreated controls was calculated as follows: […]
(§1) Reduction in the number of viral foci was further verified using quantitative real time polymerase chain reaction (qRT-PCR) amplification.
(§2) Quantitative RT-PCR was performed to determine the effect of the compound on DENV replication by quantifying DENV-2 genomic RNA copy number. […] For absolute quantitation of the viral RNA, a standard curve was established with a serially diluted RNA extracted from DENV-2 stock with a known titer.

Data set [2] has as its system DENV-2 (NGC strain). Kind of data set: Anti-adsorption activity against DENV-2 (FFURA, qRT-PCR). In kind it is cell-based, Dengue virus type-2. Particulars: added to cells simultaneously during infection, FFURA and qRT-PCR. The procedure:
In another experiment, Vero cells at ˜80% confluency were infected with 200 FFU of DENV-2 in the presence or absence of different concentrations of quercetin. The microplate was kept at 37° C. for one hour for virus adsorption. Then the cells were washed twice using sterile PBS and incubated for two hours at 37° C. Cells were then incubated for 4 days and foci formed was counted and DENV RNA copy number to indicate inhibition of virus adsorption was quantified using quantitative RT-PCR.
In general, antiviral activity of quercein was evaluated by measuring the reduction in number of viral foci. Confluent Vero cell monolayers prepared in 24 wells cell culture microplates were used. […] The number of DENV-2 foci formed was counted under a stereomicroscope and the virus titer was expressed as Foci-Forming-Unit (FFU). The percentage of viral foci reduction (RF %) compared to untreated controls was calculated as follows: […]
as §1, §2

Data set [3] is described as follows: MTT cytotoxicity assay on Vero cells. In kind it is cell-based. Particulars: African green monkey, read-out: CC50, cytotoxicity effect against Vero cells. The procedure:
C6/36 mosquito cell line derived from Aedes albopictus and Vero cell line were used. Both cell lines were maintained and propagated in Eagle's Minimum Essential Medium (EMEM) containing 10% fetal bovine serum. Cultured C6/36 and Vero cells were incubated at 28° C. and 37° C., respectively in 5% CO2 humidified chamber. At the time of virus propagation, serum concentration was reduced to 2%. Dengue virus type-2 (DENV-2) New Guinea C strain (NGC) was propagated using C6/36 cell line and harvested after CPE presentation on day seven post infection. After titration, viral stock was stored at -70° C. MTT (Dimethyl thiazolyl diphenyl tetrazolium salt) assay was performed to determine cytotoxicity of quercetin on Vero cells.

Data set [4] has as its system DENV-2 (NGC strain). Put plainly: Post-adsorption antiviral activity against intracellular replication of DENV-2 (FFURA, qRT-PCR). In kind it is cell-based, Dengue virus type-2. The protocol: Post-adsorption antiviral activity of quercetin against intracellular replication of DENV-2 was performed by inoculating 200 FFU of virus to each well containing monolayer of Vero cells. After adsorption of virus to the cells for one hour at 37° C., the cells were washed with PBS to remove the unadsorped viruses. Then, different concentrations of quercetin were added to the cells followed by four days incubation at 37° C. Viral foci formed were counted and DENV RNA copy number to indicate inhibition of virus replication was quantified using quantitative RT-PCR.
(§3) In general, antiviral activity of quercein was evaluated by measuring the reduction in number of viral foci. Confluent Vero cell monolayers prepared in 24 wells cell culture microplates were used. Then the infected cells treated using the different treatment regime was overlaid with 1.5% of carboxy methyl cellulose (CMC) (Sigma-Aldrich, St. Louis, Mo., USA) containing EMEM. Viral foci were visualized using peroxidase-based foci staining assay four days post infection. The number of DENV-2 foci formed was counted under a stereomicroscope and the virus titer was expressed as Foci-Forming-Unit (FFU). The percentage of viral foci reduction (RF %) compared to untreated controls was calculated as follows: […]
(§4) where, C is the mean of the number of foci for negative control well (without compound) and T is the mean of the number of foci in treated wells.
as §1
(§5) Quantitative RT-PCR was performed to determine the effect of the compound on DENV replication by quantifying DENV-2 genomic RNA copy number. Briefly, intracellular and extracellular DENV-2 RNAs were harvested from the DENV-infected Vero cells. Viral RNA was extracted using two types of RNA extraction kits (QlAamp Viral RNA mini kit and RNeasy mini kit) (Qiagen, Hilden, Germany). Quantitative RT-PCR assay was performed by adding 1 µl of extracted DENV RNA to the SensiMix SYBR green reagent (Quantace, Watford, United Kingdom) which contained 7.4 μl ddH2O, 10 μl 2× SensiMix One-Step, 0.4 μl 50× SYBR Green solution, 10 units of RNAse Inhibitor, 50 pmol of forward (DNF) and also reverse (D2R) primers. All samples were assayed in triplicate. Amplification was performed using the DNA Engine Opticon system (MJ Research/Bio-Rad, Hercules, Calif.) with the following cycling conditions: reverse transcription at 50° C. for 30 min, initial denaturation at 95° C. for 10 min, followed by 45 cycles of 95° C. for 15 sec, 59° C. for 30 sec and 72° C. for 30 sec. […] For absolute quantitation of the viral RNA, a standard curve was established with a serially diluted RNA extracted from DENV-2 stock with a known titer.

The test system of data set [5] is DENV-2 (NGC strain). Kind of data set: Continuous treatment antiviral activity against DENV-2 (FFURA, qRT-PCR). In kind it is cell-based, Dengue virus type-2. The procedure:
In separate experiment, to determine the antiviral activities of quercetin when used continuously, different concentrations of quercetin were added to the Vero cell monolayer five hours before virus infection. After five hours of pre-infection treatment, the cells were washed twice with sterile PBS and then 200 FFU of DENV-2 was inoculated to the cells and incubated at 37° C. for one hour. Infected cells were continuously incubated with the respective concentration of quercetin for four days post infection. Viral foci formed were counted and DENV RNA copy number to indicate inhibition of virus replication was quantified using quantitative RT-PCR.
as §3, §4, §1
as §5, with “triplicate.” for “triplicate. Amplification was performed using the DNA Engine Opticon system (MJ Research/Bio-Rad, Hercules, Calif.) with the following cycling conditions: reverse transcription at 50° C. for 30 min, initial denaturation at 95° C. for 10 min, followed by 45 cycles of 95° C. for 15 sec, 59° C. for 30 sec and 72° C. for 30 sec.”

Regarding `O=c1c(O)c(-c2ccc(O)c(O)c2)oc2cc(O)cc(O)c12` [quercetin, 2-(3,4-dihydroxyphenyl)-3,5,7-trihydroxy-4H-1-benzopyran-4-one], the “decrease in copy number of DENV-2 RNA following direct treatment” value with DENV-2 (NGC strain) [1] (different concentrations of compound, qRT-PCR) was “no significant decrease”. For the same compound, in the data set on DENV-2 (NGC strain) [1] (virus incubated with compound two hours at 37° C., foci), the “direct virucidal activity against DENV-2” value is reported as “no significant direct virucidal activity”. For the same compound, in the data set on DENV-2 (NGC strain) [2], the “anti-adsorption activity against DENV-2” value was approximately 5%. In addition, the CC50 in data set [3] was determined as 252.6 ± 0.17 µg/mL (≈ 836 µM). The “decrease of DENV-2 specific RNA production” value with DENV-2 (NGC strain) [4] (50 μg/mL quercetin, post-adsorption, qRT-PCR, vs non-treated infected cells) is on record as “more than 67%±1”. The “appearance of viral foci in treated cells” value in the data set with DENV-2 (NGC strain) [4] (50 μg/ml quercetin, foci staining, vs untreated dengue infected cells) is “small, less intensely stained and more diffused”. Besides, the IC50 in the data set with DENV-2 (NGC strain) [4] (Dengue virus, DENV2, added post viral adsorption, Vero cells, FFURA) is 35.7 µg/mL (≈ 118 µM); with DENV-2 (NGC strain) [5] (Dengue virus, DENV2, continuous treatment from 5 hours before infection up to 4 days post-infection, Vero cells, FFURA, read-out: IC50, anti-dengue activity) it was 28.9 µg/mL (≈ 95.6 µM). Further, the SI value in the data set on DENV-2 (NGC strain) [4] (post-adsorption assay) was 7.07; in the data set with DENV-2 (NGC strain) [5] (continuous treatment) it was 8.74. The “decrease of the number of DENV-2 foci” value with DENV-2 (NGC strain) [5] (50 μg/mL quercetin, continuous treatment of Vero cells, vs non-treated cells) is 70%±1.5. The “decrease of DENV-2 RNA production” value in the data set on DENV-2 (NGC strain) [5] (continuous treatment, qRT-PCR) is “more than 75.7%±1.57”.
